Measurements from ChEMBL document CHEMBL4184267, “Novel naftopidil derivatives containing methyl phenylacetate and their blocking effects on α1D/1A-adrenoreceptor subtypes” (Bioorg Med Chem Lett, 2018).
pKi: −log10 of the molar value.

Tests used:
Thoracic aorta [1] = assay: Vasodilatory activity in New Zealand White rabbit thoracic aorta assessed as relaxation of (-)-noradrenaline-induced contractile response at 0.1 uM relative to untreated control; type: functional, Oryctolagus cuniculus; set-up: scale not given: the % may be the effect or the level left
Thoracic aorta [2] = assay: Vasodilatory activity in New Zealand White rabbit thoracic aorta assessed as relaxation of (-)-noradrenaline-induced contractile response at 1 uM relative to untreated control; type: functional, Oryctolagus cuniculus; set-up: scale not given: the % may be the effect or the level left
Thoracic aorta [3] = assay: Vasodilatory activity in New Zealand White rabbit thoracic aorta assessed as relaxation of (-)-noradrenaline-induced contractile response at 10 uM relative to untreated control; type: functional, Oryctolagus cuniculus; set-up: scale not given: the % may be the effect or the level left
[4] = target: T1, Alpha-1A adrenergic receptor (Rattus norvegicus, UniProt P43140); assay: Antagonist activity at alpha1A-adrenoreceptor in Sprague-Dawley rat vas deferens assessed as relaxation of (-)-noradrenaline-induced contractile response; type: functional; conditions: read-out: pA2 (converted)
T1 sequence (P43140 whole entry): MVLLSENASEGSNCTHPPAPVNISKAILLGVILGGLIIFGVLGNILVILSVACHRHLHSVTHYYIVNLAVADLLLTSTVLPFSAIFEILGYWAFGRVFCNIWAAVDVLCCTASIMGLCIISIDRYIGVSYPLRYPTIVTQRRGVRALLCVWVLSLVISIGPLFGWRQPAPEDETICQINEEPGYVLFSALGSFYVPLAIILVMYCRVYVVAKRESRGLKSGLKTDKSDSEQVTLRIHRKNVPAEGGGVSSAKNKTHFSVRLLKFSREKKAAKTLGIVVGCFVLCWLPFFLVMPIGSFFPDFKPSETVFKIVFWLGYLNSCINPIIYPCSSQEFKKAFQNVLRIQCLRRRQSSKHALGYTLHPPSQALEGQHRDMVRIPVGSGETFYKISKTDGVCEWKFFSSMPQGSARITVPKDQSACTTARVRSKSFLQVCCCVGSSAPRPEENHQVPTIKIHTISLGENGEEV

[5] = target: T2, Alpha-1B adrenergic receptor (Rattus norvegicus, UniProt P15823); assay: Antagonist activity at alpha1B-adrenoreceptor in Sprague-Dawley rat spleen assessed as relaxation of (-)-noradrenaline-induced contractile response; type: functional; conditions: read-out: pA2 (converted)
T2 sequence (P15823 whole entry): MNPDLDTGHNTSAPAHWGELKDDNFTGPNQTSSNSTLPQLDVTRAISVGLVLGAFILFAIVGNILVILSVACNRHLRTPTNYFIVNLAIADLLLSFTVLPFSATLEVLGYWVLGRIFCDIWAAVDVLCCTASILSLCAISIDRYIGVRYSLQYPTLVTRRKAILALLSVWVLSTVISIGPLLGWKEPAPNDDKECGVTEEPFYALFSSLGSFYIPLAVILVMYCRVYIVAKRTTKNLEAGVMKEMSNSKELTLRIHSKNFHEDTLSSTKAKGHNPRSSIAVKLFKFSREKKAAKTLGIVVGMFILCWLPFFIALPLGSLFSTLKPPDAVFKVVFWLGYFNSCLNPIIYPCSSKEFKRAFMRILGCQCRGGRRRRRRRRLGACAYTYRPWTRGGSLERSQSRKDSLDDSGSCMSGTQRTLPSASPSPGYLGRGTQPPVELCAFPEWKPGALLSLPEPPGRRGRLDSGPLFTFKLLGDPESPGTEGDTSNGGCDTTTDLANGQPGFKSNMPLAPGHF

[6] = target: T3, Alpha-1D adrenergic receptor (Rattus norvegicus, UniProt P23944); assay: Antagonist activity at alpha1D-adrenoreceptor in Sprague-Dawley rat thoracic aorta assessed as relaxation of (-)-noradrenaline-induced contractile response; type: functional; conditions: read-out: pA2 (converted)
T3 sequence (P23944 whole entry): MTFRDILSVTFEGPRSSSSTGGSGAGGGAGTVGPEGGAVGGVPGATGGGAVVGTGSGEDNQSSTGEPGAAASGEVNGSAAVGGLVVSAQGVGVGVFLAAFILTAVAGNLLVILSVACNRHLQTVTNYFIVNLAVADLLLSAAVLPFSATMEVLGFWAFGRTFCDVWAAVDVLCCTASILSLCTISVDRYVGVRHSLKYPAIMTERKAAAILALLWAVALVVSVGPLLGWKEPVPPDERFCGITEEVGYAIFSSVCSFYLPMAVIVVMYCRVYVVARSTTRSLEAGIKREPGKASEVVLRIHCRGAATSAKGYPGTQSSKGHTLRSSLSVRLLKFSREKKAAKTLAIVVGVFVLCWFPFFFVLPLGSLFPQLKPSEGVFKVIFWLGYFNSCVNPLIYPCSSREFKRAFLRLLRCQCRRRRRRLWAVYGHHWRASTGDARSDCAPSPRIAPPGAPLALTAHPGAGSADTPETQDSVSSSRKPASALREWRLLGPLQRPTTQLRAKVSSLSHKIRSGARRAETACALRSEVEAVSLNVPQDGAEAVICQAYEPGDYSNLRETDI

[7] = target: T4, Alpha-1B adrenergic receptor (Homo sapiens, UniProt P35368); assay: Displacement of [125I-HEAT from human alpha1B-adrenoreceptor expressed in CHOK1 cell membranes incubated for 60 mins
T4 sequence (P35368 whole entry): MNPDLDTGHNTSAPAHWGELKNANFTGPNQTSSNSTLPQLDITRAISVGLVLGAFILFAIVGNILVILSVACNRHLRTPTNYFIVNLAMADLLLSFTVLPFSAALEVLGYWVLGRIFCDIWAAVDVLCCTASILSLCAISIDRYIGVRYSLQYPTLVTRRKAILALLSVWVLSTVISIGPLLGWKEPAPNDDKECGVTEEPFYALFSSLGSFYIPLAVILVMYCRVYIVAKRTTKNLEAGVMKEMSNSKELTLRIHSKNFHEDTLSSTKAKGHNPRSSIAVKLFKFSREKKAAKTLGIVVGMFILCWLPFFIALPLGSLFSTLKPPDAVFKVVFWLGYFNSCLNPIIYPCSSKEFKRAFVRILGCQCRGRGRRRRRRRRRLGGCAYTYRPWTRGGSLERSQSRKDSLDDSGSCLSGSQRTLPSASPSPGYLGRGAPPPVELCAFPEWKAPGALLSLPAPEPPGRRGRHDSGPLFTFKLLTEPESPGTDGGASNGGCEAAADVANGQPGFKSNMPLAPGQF

[8] = target: T5, Alpha-1D adrenergic receptor (Homo sapiens, UniProt P25100); assay: Displacement of [125I-HEAT from human alpha1D-adrenoreceptor expressed in CHOK1 cell membranes incubated for 60 mins
T5 sequence (P25100 whole entry): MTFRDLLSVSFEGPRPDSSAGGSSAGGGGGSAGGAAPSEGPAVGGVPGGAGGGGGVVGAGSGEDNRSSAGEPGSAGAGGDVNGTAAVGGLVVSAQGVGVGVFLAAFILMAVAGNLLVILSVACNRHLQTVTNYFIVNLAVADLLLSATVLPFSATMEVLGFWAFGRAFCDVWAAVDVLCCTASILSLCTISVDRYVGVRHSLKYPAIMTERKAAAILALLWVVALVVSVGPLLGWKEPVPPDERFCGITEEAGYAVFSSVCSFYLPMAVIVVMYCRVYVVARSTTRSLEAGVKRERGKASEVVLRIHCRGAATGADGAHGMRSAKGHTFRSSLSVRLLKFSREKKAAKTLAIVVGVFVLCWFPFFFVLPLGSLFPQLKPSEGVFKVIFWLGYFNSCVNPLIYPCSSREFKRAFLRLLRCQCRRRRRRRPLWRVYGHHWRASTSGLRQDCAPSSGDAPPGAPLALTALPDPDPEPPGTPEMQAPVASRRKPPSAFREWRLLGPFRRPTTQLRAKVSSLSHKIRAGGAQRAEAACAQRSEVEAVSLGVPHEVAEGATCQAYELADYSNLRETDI

Q: For `COC(=O)Cc1ccc(OCC(O)CN2CCN(c3ccc(C)c(C)c3)CC2)cc1` (stereo not drawn), which Activity (Thoracic aorta [1]) is on record?
A: 8.9%

Q: What about the Activity (Thoracic aorta [2]) of the same compound?
A: 28.4%

Q: What about the Activity (Thoracic aorta [3]) of the same compound?
A: 70.2%

Q: How did the Activity (Thoracic aorta [1]) turn out when `COC(=O)Cc1ccc(OCC(O)CN2CCN(c3ccc(OC)cc3)CC2)cc1` (stereo not drawn) was run?
A: 6.3%

Q: And the Activity (Thoracic aorta [2])?
A: 7%

Q: What about the Activity (Thoracic aorta [3]) of the same compound?
A: 15.8%

Q: How did the Activity (Thoracic aorta [1]) turn out when `COC(=O)Cc1ccc(OCC(O)CN2CCN(c3ccc(Br)cc3)CC2)cc1` (stereo not drawn) was run?
A: 7.9%

Q: What about the Activity (Thoracic aorta [2]) of the same compound?
A: 16.6%

Q: What about the Activity (Thoracic aorta [3]) of the same compound?
A: 43.5%

Q: How did the Kb [4] turn out when `COC(=O)Cc1ccc(OC[C@H](O)CN2CCN(c3cc(C)ccc3C)CC2)cc1` was run?
A: 63.1 nM

Q: And the Kb [5]?
A: 447 nM

Q: And the Kb [6]?
A: 38 nM

Q: What does the source list for `COC(=O)Cc1ccc(OCC(O)CN2CCN(c3ccccc3C)CC2)cc1` (stereo not drawn)?
A: Activity (Thoracic aorta [1]): 27.3%; Activity (Thoracic aorta [2]): 62.3%; Activity (Thoracic aorta [3]): 99.3%; Kb [4]: 490 nM; Kb [5]: 324 nM; Kb [6]: 20 nM

Q: `COC(=O)Cc1ccc(OCC(O)CN2CCN(c3ccc(C)c(Cl)c3)CC2)cc1` (stereo not drawn) was tested. Which Activity (Thoracic aorta [1]) did it give?
A: 19.5%

Q: And the Activity (Thoracic aorta [2])?
A: 25.9%

Q: And the Activity (Thoracic aorta [3])?
A: 38.7%

Q: How did the Activity (Thoracic aorta [1]) turn out when `CCOc1cccc(N2CCN(CC(O)COc3ccc(CC(=O)OC)cc3)CC2)c1` (stereo not drawn) was run?
A: 6.1%

Q: What about the Activity (Thoracic aorta [2]) of the same compound?
A: 10.2%

Q: What about the Activity (Thoracic aorta [3]) of the same compound?
A: 14.9%

Q: With `COC(=O)Cc1ccc(OCC(O)CN2CCN(c3ccc(C)cc3)CC2)cc1` (stereo not drawn) as the compound, how does the Activity (Thoracic aorta [1]) read?
A: 15.3%

Q: And the Activity (Thoracic aorta [2])?
A: 28.7%

Q: What about the Activity (Thoracic aorta [3]) of the same compound?
A: 56.7%

Q: Which results are given for `COC(=O)Cc1ccc(OCC(O)CN2CCN(c3cccc(C)c3)CC2)cc1` (stereo not drawn)?
A: Activity (Thoracic aorta [1]): 14.8%; Activity (Thoracic aorta [2]): 36.9%; Activity (Thoracic aorta [3]): 63.5%

Q: Which Activity (Thoracic aorta [1]) does the source give for `COC(=O)Cc1ccc(OCC(O)CN2CCN(c3ccc(C)cc3C)CC2)cc1` (stereo not drawn) here?
A: 13.7%

Q: What about the Activity (Thoracic aorta [2]) of the same compound?
A: 43.3%

Q: And the Activity (Thoracic aorta [3])?
A: 92.7%

Q: How did the Activity (Thoracic aorta [1]) turn out when `COC(=O)Cc1ccc(OCC(O)CN2CCN(c3cc(C)ccc3C)CC2)cc1` (stereo not drawn) was run?
A: 24.3%

Q: What about the Activity (Thoracic aorta [2]) of the same compound?
A: 66.2%

Q: What about the Activity (Thoracic aorta [3]) of the same compound?
A: 100%

Q: What about the Kb [4] of the same compound?
A: 38.9 nM

Q: And the Kb [5]?
A: 759 nM

Q: What about the Kb [6] of the same compound?
A: 44.7 nM

Q: With `COC(=O)Cc1ccc(OCC(O)CN2CCN(c3cc(C)cc(C)c3)CC2)cc1` (stereo not drawn) as the compound, how does the Activity (Thoracic aorta [1]) read?
A: 5.8%

Q: And the Activity (Thoracic aorta [2])?
A: 18.6%

Q: And the Activity (Thoracic aorta [3])?
A: 61.4%

Q: For `COC(=O)Cc1ccc(OCC(O)CN2CCN(c3cccc(OC)c3)CC2)cc1` (stereo not drawn), which Activity (Thoracic aorta [1]) is on record?
A: 13%

Q: What about the Activity (Thoracic aorta [2]) of the same compound?
A: 23.7%

Q: What about the Activity (Thoracic aorta [3]) of the same compound?
A: 39.8%

Q: How did the Kb [4] turn out when `COC(=O)Cc1ccc(OC[C@@H](O)CN2CCN(c3cc(C)ccc3C)CC2)cc1` was run?
A: 30.2 nM

Q: And the Kb [5]?
A: 269 nM

Q: What about the Kb [6] of the same compound?
A: 15.5 nM

Q: How did the Activity (Thoracic aorta [1]) turn out when `COC(=O)Cc1ccc(OCC(O)CN2CCN(c3cccc(C)c3C)CC2)cc1` (stereo not drawn) was run?
A: 12.5%

Q: And the Activity (Thoracic aorta [2])?
A: 43.3%

Q: And the Activity (Thoracic aorta [3])?
A: 81.7%

Q: Which Activity (Thoracic aorta [1]) does the source give for `COC(=O)Cc1ccc(OCC(O)CN2CCN(c3ccccc3OC)CC2)cc1` (stereo not drawn) here?
A: 27.6%

Q: And the Activity (Thoracic aorta [2])?
A: 71.1%

Q: And the Activity (Thoracic aorta [3])?
A: 100%

Q: What about the Kb [4] of the same compound?
A: 148 nM

Q: What about the Kb [5] of the same compound?
A: 603 nM

Q: And the Kb [6]?
A: 77.6 nM

Q: `COC(=O)Cc1ccc(OCC(O)CN2CCN(c3cc(Cl)c(OC)cc3OC)CC2)cc1` (stereo not drawn) was tested. Which Activity (Thoracic aorta [1]) did it give?
A: 8.2%

Q: What about the Activity (Thoracic aorta [2]) of the same compound?
A: 20.4%

Q: What about the Activity (Thoracic aorta [3]) of the same compound?
A: 46.1%

Q: How did the Activity (Thoracic aorta [1]) turn out when `COC(=O)Cc1ccc(OCC(O)CN2CCN(c3ccccc3Cl)CC2)cc1` (stereo not drawn) was run?
A: 29%

Q: And the Activity (Thoracic aorta [2])?
A: 58.7%

Q: What about the Activity (Thoracic aorta [3]) of the same compound?
A: 98.3%

Q: For `COc1ccccc1N1CCN(CC(O)COc2cccc3ccccc23)CC1` (stereo not drawn) [NAFTOPIDIL], which Activity (Thoracic aorta [1]) is on record?
A: 25.1%

Q: What about the Activity (Thoracic aorta [2]) of the same compound?
A: 86.9%

Q: What about the Activity (Thoracic aorta [3]) of the same compound?
A: 97.8%

Q: What about the pKi [7] of the same compound?
A: 7.70

Q: What about the pKi [8] of the same compound?
A: 8.92
